According to article PMC11305387, “AlphaFold accelerated discovery of psychotropic agonists targeting the trace amine–associated receptor 1” (Science Advances, 2024):
Several values for one entry are separate records, joined by “and”; a condition that tells them apart may be missing. Identical values can stand only once. Like-named read-outs stand apart in the source and are kept apart here.

What was measured:
hTAAR1 = target: T1, hTAAR1 (Homo sapiens, UniProt Q96RJ0); test: G protein (mini-Gs) recruitment luminescence complementation assay, agonist mode; type: cell-based; conditions: for EC50: TAAR1, G protein recruitment assay, read-out: pEC50 (converted)
T1 construct: expressed in transfected cells; host or cells: Expi293F
T1 sequence (Q96RJ0 1-339): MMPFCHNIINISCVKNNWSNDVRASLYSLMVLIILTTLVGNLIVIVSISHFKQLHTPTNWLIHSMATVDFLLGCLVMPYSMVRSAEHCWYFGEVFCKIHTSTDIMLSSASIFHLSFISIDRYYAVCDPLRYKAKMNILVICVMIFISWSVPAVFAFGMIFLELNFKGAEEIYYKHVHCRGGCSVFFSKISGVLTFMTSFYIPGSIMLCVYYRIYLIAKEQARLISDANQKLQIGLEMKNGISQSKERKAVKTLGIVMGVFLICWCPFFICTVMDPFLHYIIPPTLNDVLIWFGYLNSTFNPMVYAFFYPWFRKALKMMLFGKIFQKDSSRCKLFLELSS
Procedure: The 62 predicted ligands were purchased from commercial vendors and tested for activity at a concentration of 20 μM in a luminescence complementation–based assay measuring recruitment of mini-Gs to the human TAAR1 ([38]).
To monitor TAAR1 activation by compounds, we used our previously described system. […] Cells were then reseeded in solid white, 96-well plates (Corning) with 90 μl of cell suspension per well. Luminescence was read using a plate reader for 5 min (SPARK 10 M, Tecan) before the addition of compounds to ensure signal stability. Ten microliters of each compound diluted in DPBS was added, and luminescence from each well was read for 10 min, with 100-ms read time per well. The A2AR counter-screen was performed using the same protocol. In these experiments, the hTAAR1 was replaced by a C-terminally SmBiT-tagged hA2AR construct.

[1] = tested on: TAAR1-WT and TAAR1-KO mice; test: Core-body temperature (CBT) measurement; type: in vivo; conditions: TAAR1-KO mice, 1 mg/kg (fig. S13A)
Procedure: Core temperature was determined by a rectal thermoprobe. Compounds or vehicle was administered intraperitoneally. A basal measurement was performed immediately before injection. Measurements were repeated every 30 min for 2 hours. Mean changes in CBT were calculated by subtracting the value from vehicle treated group at the corresponding time point. A washout of 1 week between different doses of compound 65 was applied, and mice were injected starting with the lowest dose first.

[2] = Tables S3A/S3B, compounds tested at 20 μM, relative to the maximal effect of β-PEA (20 µM)
[3] = relative to the effect of the reference agonist β-PEA, read-out: Emax

Compound	Emax (hTAAR1; [2]) [%]	EC50 (hTAAR1)	Emax (hTAAR1; [3]) [%]	also measured
CCN1CCc2ccccc2C(C)C1 (stereo not drawn) [Compound 43]	7.6			
CCCN(CCC)C1CCc2cccc(O)c2C1 (stereo not drawn) [Compound 8-OH-DPAT, 8-hydroxy-2-(di-n-propylamino)tetralin, reference compound]				CBT responsiveness [1]: validated the responsiveness of TAAR1-KO mice
Cc1ccc(-c2cccc3c2CNCC3)o1 [Compound 18]		0.631 µM	68.7	
NC[C@H]1OCCc2sc(F)cc21 [Compound 26]		1 µM	95.5	
NCc1nsc2ccccc12 [Compound 23]		3.98 µM	79.2	
CN[C@@H](C)CNc1ncnc2sc(C)cc12 [Compound 46]	18.8			
Cc1ccc([C@@H]2CNCCO2)o1 [Compound 27]		0.251 µM	98.7	
Cc1cc2c(CCN)csc2s1 [Compound 21]		3.16 µM	75.2	Emax at 20 µM (hTAAR1; [2]): 75.3%
CC1=C(c2cccnn2)CNCC1 [Compound 76]		50.1 µM and ~50.1 µM		
CN1CCC(c2c[nH]c3ccccc23)C1 (stereo not drawn) [Compound 49]	27.1			
NCc1noc2ccc(F)cc12 [Compound 13]		3.16 µM	51.8	
Cl.Cl.c1cnc2c(c1)CNC2 [Compound 4]	4.4			
Cc1nc(C(N)C(C)O)cs1.Cl.Cl (stereo not drawn) [Compound 3]	2.3			
N[C@H]1COc2cccc(Br)c2C1 [Compound 20]		3.98 µM	74.5	
CCNCc1cccc2c1OCO2 [Compound 57]		5.01 µM	73.2	
Brc1csc2c1CNCC2 [Compound 29]		0.158 µM	106	
C[C@H](N)c1coc2ccccc12 [Compound 14]		7.94 µM	54.3	
CC(CNCc1ncc[nH]1)c1ccncc1 (stereo not drawn) [Compound 36]	1.3			
CC[C@@H](CNCC1=CCCOC1)c1ccccc1 [Compound 58]		7.94 µM		Emax (hTAAR1; relative to the effect of the reference agonist β-PEA): 78.4%
CN[C@H]1CCc2ccccc2C1 [Compound 19]		3.98 µM	74.5	Emax at 20 µM (hTAAR1; [2]): 72.8%
Br.NCc1cccc2c(O)cccc12 [Compound 8]	14.9			
CC1=C(c2cc[nH]n2)CNCC1 [Compound 71]		1.58 µM and 0.631 µM		
CN1CCC(c2ccc(Br)cc2)C1 (stereo not drawn) [Compound 33]	0.6			
CCNCc1nc(-c2cccs2)cs1 [Compound 39]	3.9			
CC1=C(c2ncco2)CNCC1 [Compound 74]		0.631 µM		
Cn1cc(C2=CCCNC2)cn1 [Compound 66]		2 µM		
c1ccc2c(c1)COC2CNCc1ccn[nH]1 (stereo not drawn) [Compound 47]	21.0			
Cc1cccc(C2CCCN2)c1 (stereo not drawn) [Compound 2]	1.3			
